The text below walks through data of patent US7265263B1, “Potato transcription factors, methods of use thereof, and a method for enhancing tuber development” (Iowa State University Research Foundation, Inc., priority 2002, dated 2007).

“Also recorded” adds a separate entry of the source.

The subject of test [1] is POTH1 overexpression lines. The test can be described thus: Exogenous GA3 application to POTH1 overexpression lines. The class given is in vivo, Solanum tuberosum. An excerpt: Many of the traits of the phenotypes observed in POTH1 overexpression lines were similar to GA-deficient mutants. These similarities included decreased plant height, decreased internode length, and darker green coloration of the leaves (van den Berg et al., “Morphology and [^14C]Gibberellin A12 Metabolism in Wild-Type and Dwarf Solanum Tuberosum ssp. Andigena Grown Under Long and Short Photoperiods,” J. Plant Physiol. 146:467-473 (1995), which is hereby incorporated by reference in its entirety). Because of this, exogenous GA3 was applied to determine whether the overexpression lines were responsive to GA treatment. The shoot apex of overexpression lines was sprayed to runoff with 10 μM GA3 in 0.002% (v/v) ethanol or with 0.002% (v/v) ethanol alone. […] Palisade and spongy parenchyma organization is partially rescued in leaves from line 15 treated with GA3 (FIG. 5G). The GA3-treated leaf (FIG. 5J) of the severe mutant, line 15, is more similar in morphology to the wild-type leaf (FIG. 5K). Leaflets are more ovate in form rather than the typical mouse-ear shape. Wild-type leaves have a prominent mid-vein (FIG. 5L), whereas the mid-vein (FIG. 5M, arrow) is more prominent in the mutant GA3-treated leaf than in the mutant untreated leaf (FIG. 5N). […]

The next test relates to POTH1. The test can be described thus: Yeast two-hybrid interaction with POTH1. Type of test: binding, Solanum tuberosum. To be noted: nutritional selection and lacZ activation, yeast AH109. The text has this:
The Matchmaker two-hybrid system (Clontech, Calif.) was used for the yeast two-hybrid screen. Yeast transformation and plasmid rescue into DH5-α E. coli cells were according to the manufacturer's instructions. Full-length POTH1 was cloned into the pBridge (Clontech, Calif.) vector and used as bait to screen the potato (S. tuberosum ‘Desireé’) stolon cDNA library in pAD-GAL4-2.1 (Stratagene, Calif.). Positive interactions were confirmed by cotransforming yeast strain AH109 with each purified pAD plasmid and pBridge: POTH1 and plating on -leucine/-tryptophan (transformation control) and -leucine/-tryptophan/-histidine/-adenine (selection) nutrient medium. Induction of the AH109 reporter gene, lacZ, was measured with a yeast β-galactosidase assay kit (Pierce Chemicals). β-galactosidase activity (FIG. 9B) was determined from a known density of yeast cells and calculated as 1000×OD420/time of color reaction (minutes)×volume of yeast culture (ml)×OD600.
The StBEL-05 deletion constructs were amplified by PCR, then cloned into the vector, pGAD, in-frame with the GAL4 activation domain. POTH1 deletion constructs were amplified by PCR, and cloned into pBridge (Clontech) in-frame with the GAL4 binding domain. Sequencing of selected cDNAs and constructs was performed at the Iowa State University DNA Facility. For deletion analysis, modified constructs of POTH1 were cloned into the pBridge vector for fusion with the DNA-binding domain of GAL4 (FIG. 10A). For StBEL-05, constructs were cloned into the pGAD vector for fusion with the activating domain of GAL4 (FIG. 10B). Deletion constructs were made from both the amino and carboxy termini. These mutants were then tested for interaction in the yeast two-hybrid system by cotransforming into yeast strain AH109 with the corresponding full-length partner (StBEL-05 in pGAL4 or POTH1 in pBridge). All constructs were sequenced to verify that they were in-frame. Positive interactions were verified for lacZ induction by using a β-galactosidase assay (Pierce Chemical Company). For POTH1, seven deletion constructs were tested (FIG. 10A). For the BEL TFs, a fusion construct of StBEL-05 (653 aa of StBEL-05 sequence) and nine deletion constructs were tested (FIG. 10B).

Sequence of POTH1 (as listed by the source): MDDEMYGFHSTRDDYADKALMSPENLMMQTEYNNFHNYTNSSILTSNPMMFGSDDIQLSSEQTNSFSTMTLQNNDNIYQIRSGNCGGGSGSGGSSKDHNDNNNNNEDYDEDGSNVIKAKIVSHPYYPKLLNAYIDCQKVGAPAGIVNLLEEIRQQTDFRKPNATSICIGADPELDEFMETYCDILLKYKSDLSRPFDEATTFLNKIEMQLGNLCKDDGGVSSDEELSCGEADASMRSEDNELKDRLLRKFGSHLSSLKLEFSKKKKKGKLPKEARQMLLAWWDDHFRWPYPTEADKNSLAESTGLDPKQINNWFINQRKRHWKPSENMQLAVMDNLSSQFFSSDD

Consider `C=C1C[C@]23C[C@@]1(O)CC[C@H]2[C@@]12C=C[C@H](O)[C@@](C)(C(=O)O1)[C@H]2[C@@H]3C(=O)O` [GA3], for which, in test [1] (10 μM GA3 sprayed on shoot apex), the “effect on leaf morphology” value was “partially rescued the leaf morphology of both severe and intermediate phenotypes; also recorded: partial reversal of the leaf phenotype”. Further, the “effect on dwarf phenotype” value in test [1] (GA3 application) was “completely rescued the dwarf phenotype”.

B1: StBEL-29: BEL transcription factor from Solanum tuberosum, SEQ ID NO:12 (protein, listed as Solanum tuberosum)
chain: QGLSLSLSSSQQPGFGNFTAARELVSSPSGSASASGIQQQQQQQQSISSVPLSSKYMKAAQELLDEVVNVGKSMKSTNSTDVVVNNDVKKSKNMGDMDGQLDGVGADKDGAPTTELSTGERQEIQMKKAKLVNMLDEVEQRYRHYHHQMQSVIHWLEQAAGIGSAKTYTALALQTISKQFRCLKDAIIGQIRSASQTLGEEDSLGGKIEGSRLKFVDNQLRQQRALQQLGMIQHNAWRPQRGLPERAVSVLRAWLFEHFLHPYPKDSDKMMLAKQTGLTRSQVSNWFINARVRLWKPMVEEMYLEEIKEHEQNGLGQEKTSKLGEQNEDSTTSRSIATQDKSPGSDSQNKSFVSKQDNHLPQHNPASPMPDVQRHFHTPIGMTIRNQSAGFNLIGSPEIESINITQGSPKKPRNNEMLHSPNSIPSINMDVKPNEEQMSMKFGDDRQDRDGFSLMGGPMNFMGGFGAYPIGEIARFSTEQFSAPYSTSGTVSLTLGLPHNENLSMSATHHSFLPIPTQNIQIGSEPNHEFGSLNTPTSAHSTSSVYETFNIQNRKRFAAPLLPDFVA
B1: the “interaction with POTH1” value in the test with POTH1 is “showed selective interaction”.

B2: pAD5-9: StBEL-05 deletion construct, aa 1 through 315 (protein)
chain: MNPNNYMQGYTTSDTQQQQQLLFLNSSPAASNALCHANIQHAPLQQQHFVGVPLPAVSLHDQINHHGLLQRMWNNQDQSQQVIVPSSTGVSATSCGGITTDLASQLAFQRPIPTPQHRQQQQQQGGLSLSLSPQLQQQISFNNNISSSSPRTNNVTIRGTLDGSSSNMVLGSKYLKAAQELLDEVVNIVGKSIKGDDQKKDNSMNKESMPLASDVNTNSSGGGESSSRQKNEVAVELTTAQRQELQMKKAKLLAMLEEVEQRYRQYHHQMQIIVLSFEQVAGIGSAKSYTQLALHAISKQFRCLKDAIAEQVKAT
modifications: left off: large carriers
Consider B2, for which, in the test on POTH1, the “interaction with POTH1” value is “demonstrated an interaction; also recorded: interaction with POTH1”.
